Here are results for 9 molecules from patent publication US20140286945A1, “ENZYME INHIBITOR FOR CANCER TREATMENT” (The Curators of the University of Missouri, priority 2011, published 2014).

One series relates to MCF-7 cells. Put plainly: MCF-7 cell proliferation (MTT). The format is cell-based. Conditions: for response of MCF-7 cells to treatment: at low doses. The method, then: Refer to FIG. 11, which compares MCF-7 cell proliferation data among the treatments of BIBB515, Tamoxifen, Anastraozole, and various combinations thereof. During the experiments, the MCF-7 cells were treated with charcoal-stripped serum prior to treatment and grown with treatment repeated every 72 hrs. The cells were grown for 6 days, on day 7 the cell proliferation was determined by adding MTT and read at 570 nm according to the manufactures instructions. […] Thus, inhibiting the cholesterol pathway can inhibit the estrogen induced cell proliferation in MCF-7 cells.

The conditions of series [1]: rat, hamster, squirrel monkey and minipig models; due to inhibition of LDL production; cited from earlier work.
The test system of another series is dog lymphoma cells. Put plainly: Dog lymphoma cell viability. The format is cell-based. Conditions: BIBB515 10 μM. From the text:
Spontaneously occurring lymphoma in the dog has many of the same histopathological, molecular, and clinical features as non-Hodgkin's lymphoma (NHL) in humans. Most of the lymphoma subtypes recognized in humans have histopathologically identical counterparts in the dog and recent investigations show similar molecular characteristics in the two species. Likewise, spontaneous lymphoma in the dog has a similar clinical presentation, response to chemotherapy, and clinical progression compared to NHL in human patients. […] A canine lymphoma cell line, OSW, was established from the thoracic effusion of a dog with relapsed peripheral T-cell lymphoma. […] See, e.g., U.S. Pat. No. 7,897,150 and Kisseberth, W. C., et al., “A novel canine lymphoma cell line: a translational and comparative model for lymphoma research,” Leuk Res, 2007 31(12): p. 1709-20.

A further series deals with CD-20. Put plainly: Flow-cytometric analysis of CD-20 in Mec-2 cells. The format is cell-based. Conditions: flow cytometry, Fludarabine 10 μM, compared to control (FIG. 2). A general note: Flow cytometry measures light scatter and fluorescence of single cells or particles in a stream.
For series [2], the system named is Mec-2 cells. Put plainly: MTT assay of cell viability/proliferation in Mec-2 cells. Conditions: for effect on cell proliferation, agents alone: 72 hours, BIBB515 at 10 μm (10^−5), Fludarabine 10 μM (FIG. 4). The format is cell-based.
For series [3], the system named is Mec-2 cells. Put plainly: Confocal microscopic analysis of glycosphingolipid density in Mec-2 cells. Format: cell-based. Conditions: confocal microscopy, relative to control, TAK-475 at 10 μM, data not shown. The method, then:
Mec-2 cells were treated with BIBB515, YM-53601, or 10 μM of TAK-475 and imaged by confocal miscrscope. […] This would explain why rituximab is of limited or no efficacy in Mec-2 and Wac-3 cells, and provides a rationale for the efficacy of combination treatment with rituximab and a cholesterol biosynthetic pathway inhibitor.

In series [4] the test system is Mec-2 cells. Put plainly: Membrane lipid content of Mec-2 cells by mass spectrometry. Conditions: 24 hrs, 10^−5 M; for some diacyl phosphatidylcholine species: versus DMSO controls; for lysophosphatidylcholines (LPC): versus DMSO controls (FIG. 19); for levels of phosphatidylcholines (PC): versus DMSO controls (FIG. 20); for levels of glycosphingolipids/dihydroglycosphingolipids: versus DMSO controls (FIG. 21); for levels of ether-linked phosphatidylcholines: versus DMSO controls (FIG. 22). The format is cell-based. The protocol:
Lipids were extracted by the following chloroform and methanol method. To 0.8 parts cells in aqueous solution, 1 part chloroform and 2 parts methanol was added and shaken well, then another 1 part chloroform and 1 part water added and shaken. The mixture was then centrifuged at low speeds for 5-10 min. and the lower layer removed. One part chloroform was added 3 times, shaken and centrifuged to again remove the lower layer. The layers were then combined, washed with KCl and then water. The extracted lipids from Mec-2 cells were vacuum dried after 24 hrs. of treatment with BIBB(10^−5 M) and YM(10^−5 M). Controls were treated with DMSO.
Samples were analyzed by mass spectrometry by the Kansas Lipidomics Research Center (KLRC) and identified and quantified by comparison against standard molecular weights of lipids. Each sample was loaded, vaporized, and ionized by electron beam; ions electromagnetically separated according to mass-to-charge ratio (m/z) were detected, and the ion signal processed into mass spectra.
Compounds were identified based on m/z of the intact ion and the mass of one fragment formed in the mass spectrometer: typically, for polar lipids, a head group fragment; for sphingolipids, a fragment characteristic of the long-chain base or sugar(s); for neutral lipids and for specialized analyses, often an acyl fragment. Quantities were reported as normalized signal/(tissue metric nanomole/3 million cells) against internal standards added in known amounts, usually with an adjustment for variation in response with m/z. Thus, quantities reported as normalized signal/(tissue metric) for diacyl or monoacyl phospholipids can be considered to be equal to nmol/(tis sue metric).

The subject of the next series is patient CLL cells. Put plainly: Patient CLL cell viability. The format is cell-based. The protocol:
1. Inhibition effect with BIBB515 alone and in combination with Fludarabine and Rituximab on patient cells. To assess the effect of treatment on cell viabilities, patient CLL cells were treated with BIBB515 alone and in combination with Fludarabine and Rituximab. Untreated CLL patient cell samples and samples of patients exposed to Fludarabine were used. The treatment was done 24 hrs after the cells plated in T25 flasks.

The test system of series [5] is Mec-2 cells. Conditions: 10 µM.
A further series deals with Raji cells. Put plainly: Raji (Burkitt lymphoma) cell viability at 72 hours. Format: cell-based. The method, then:
1. Inhibition on cell viability of Raji after treatments with BIBB515 alone and in combination with Fludarabine. Burkitt lymphoma is a highly aggressive lymphoma, and Raji cells are sensitive to Fludarabine treatment at 10 μM concentration. […] Fludarabine was used at 5 μM concentration.
2. Inhibition on cell viability of Raji after treatments with Terbinafine alone and in combination with Fludarabine. […] The preferred cholesterol concentration range may also various between different cancer types.

A further series concerns CD-54. Put plainly: Flow-cytometric analysis of CD-54 in Mec-2 cells. The format is cell-based. Conditions: flow cytometry, Fludarabine 10 μM, compared to control (FIG. 2).
In the next series the test system is Wac-3 cells. Put plainly: MTT assay of cell viability in Wac-3 cells. Format: cell-based. (Tetrazolium dyes change colour on reduction, which living cells bring about.)
Series [6] deals with Mec-2 cells. Put plainly: Flow cytometry of glycosphingolipids in Mec-2 cells. Format: cell-based. Conditions: data not shown.
Series [7] has as its system multiple myeloma cell line U226B1. Put plainly: Multiple myeloma cell line proliferation. Format: cell-based. Conditions: Ro-48-8071 alone (FIG. 12).
[8] abbreviates: 10 μM YM-53601, 10 μg/mL alemtuzumab.

In the case of `O=C(c1ccc(Cl)cc1)N1CCC(=Cc2ccc(C3=NCCO3)cc2)CC1` [BIBB515], the “sensitization of MCF-7 cells” value in the series on MCF-7 cells (FIG. 11) was “sensitized”. The “proliferation of cells with estrogen” value in the series with MCF-7 cells (MCF-7, charcoal-stripped serum, 6 days, MTT on day 7 (FIG. 11)) is reported as “blocked”. The “cell death in MCF-7 cells” value with MCF-7 cells (relatively low doses of Tamoxifen or Anastrazole) is given as “induces cell death”. Besides, the lipid lowering result in series [1] is listed as “lower lipids”. In the series on dog lymphoma cells (Chlorambucil 100 nM (FIG. 16)), the cell viability result is recorded as “reducing the cell viability somewhat”. Further, the cell viability result in the series with dog lymphoma cells (lomustine 100 nM (FIG. 15)) was “reducing the cell viability somewhat”. Further, the “CD-20 cell surface expression” value with CD-20 was “increased CD-20 cell surface expression”. In addition, the “effect on cell proliferation, agents alone” value with Mec-2 cells [2] was “able to inhibit cell proliferation”. Moreover, the “glycosphingolipids and thus lipid raft density” value in the series on Mec-2 cells [3] was “increase”. In the series with Mec-2 cells [4], the “some diacyl phosphatidylcholine species” value is “reduce”, the “lysophosphatidylcholines (LPC)” value is “reduce”, the “levels of phosphatidylcholines (PC)” value is given as “increase” and the levels of glycosphingolipids/dihydroglycosphingolipids entry is “increase”. Further, in the series on Mec-2 cells [4], the “levels of ether-linked phosphatidylcholines” value was “increase”. The “effect on cell viability” value in the series on patient CLL cells (BIBB515 study) was “reducing the cell viability moderately”. Further, the viability with Mec-2 cells [5] is 65%. Besides, in the series with Raji cells (BIBB515 various concentrations, even at 10^−7, Fludarabine 5 μM (FIG. 9)), the Raji cell proliferation entry is given as “reduced”. In the series on CD-54, the “CD-54 cell surface expression” value is “maintained at the similar level”. Moreover, the “sensitization of cells to Rituximab treatment” value in the series with Wac-3 cells (BIBB515 study (FIG. 8)) is “sensitizes the Wac-3 cells to Rituximab treatment”.
Regarding “alemtuzumab: CD52-targeting monoclonal antibody”, the “effect on cellular proliferation” value with Wac-3 cells (setting [8]) is given as “ineffective at the concentration tested”.
In the case of `F/C(COc1ccc2c(c1)[nH]c1ccccc12)=C1/CN2CCC1CC2` [YM-53601], the “effect on cell proliferation” value in the series on Mec-2 cells [2] (YM-53601 100 nM (FIG. 7)) is listed as “reduces Mec-2 cell proliferation moderately”. Also, the “glycosphingolipids and thus lipid raft density” value with Mec-2 cells [3] is listed as “increase”. Also, in the series on Mec-2 cells [4], the “some diacyl phosphatidylcholine species” value is reported as “reduce”, the “lysophosphatidylcholines (LPC)” value was “reduce”, the “levels of phosphatidylcholines (PC)” value was “increase” and the levels of glycosphingolipids/dihydroglycosphingolipids entry is on record as “increase”. Besides, the “levels of ether-linked phosphatidylcholines” value with Mec-2 cells [4] is on record as “increase”. In the series on Wac-3 cells (setting [8]), the “effect on cellular proliferation” value is “effective at preventing cellular proliferation”. In addition, the “growth of cell population” value in the series on Wac-3 cells (10 μM YM-53601, 10 μg/mL alemtuzumab, control population more than tripled) is “did not achieve even a doubling”. Further, the “glycosphingolipids / lipid raft density by flow cytometry” value in the series with Mec-2 cells [6] was “increase was confirmed”.
Turning to `CN(C/C=C/C#CC(C)(C)C)Cc1cccc2ccccc12` [Terbinafine, terbinafine], in the series with Mec-2 cells [2] (Terbinafine 60 μM, controls 0.5 (FIG. 5)), the “cell proliferation (MTT assay)” value was determined as 0.16. The Raji cell proliferation result in the series with Raji cells (Terbinafine study (FIG. 10)) is recorded as “reduced”.
On to “Rituximab: an antiCD-20 monoclonal antibody that is in use in clinics”, for which, in the series with Mec-2 cells [2], the “effect on cell proliferation, agents alone” value was “resistant”. For the same molecule, the “effect on cellular proliferation” value in the series on Wac-3 cells (10 μM TAK-475, 5 μM Fludarabine, 10 μg/mL Rituximab (FIG. 14)) is on record as “wholly ineffective”.
On to `CC/C(=C(\c1ccccc1)c1ccc(OCCN(C)C)cc1)c1ccccc1` [Tamoxifen], for which the “response of MCF-7 cells to treatment” value with MCF-7 cells was “resistant”.
As for `CC(C)(C#N)c1cc(Cn2cncn2)cc(C(C)(C)C#N)c1` [Anastrazole], in the series with MCF-7 cells, the “response of MCF-7 cells to treatment” value is “resistant”.
As to `C=CCN(C)CCCCCCOc1ccc(C(=O)c2ccc(Br)cc2)c(F)c1` [Ro-48-8071], the cell proliferation result in [7] is recorded as “provides reduction on cell proliferation”. The lipid lowering result in series [1] is reported as “lower lipids”. Besides, the “concentration giving the highest inhibition (dose dependent sensitivity)” value in the series with Mec-2 cells [2] (Ro-48-8071 alone (FIG. 6)) worked out at 30 µM. The “effect on cell proliferation” value with Mec-2 cells [2] (Ro-48-8071 study, Fludarabine 10 μM (FIG. 6)) was “inhibits Mec-2 cell proliferation significantly”. In the series with patient CLL cells (Ro-48-8071 study, control over 80%), the cell viability entry is on record as “about 65%”.
As for `Nc1nc(F)nc2c1ncn2[C@@H]1O[C@H](CO)[C@@H](O)[C@@H]1O` [Fludarabine], the viability with Mec-2 cells [5] was 82%.

The term viability denotes a per cent measure of how many cells are alive, often set against a control.
